What was measured:
[1] = tested on: NMDA receptor (NMDAR); assay: Ca2+ imaging (Fluo-3) of hippocampal brain slices, NMDA + glycine application (NMDA reaction); assay type: cell-based, mouse
[2] = tested on: GluA2 mRNA / (GluA1+GluA3+GluA4 mRNA); assay: qRT-PCR of AMPAR/NMDAR subunits in hippocampal regions, Ca2+ permeability index; assay type: in vivo, mouse
Protocol: Hippocampal slices of 17 to 18 week old male C57BL/6J background mice (CD, HFD, and HFD with PER treatment) or 12 to 13 week old ob/ob mice (ob/ob, and ob/ob with PER treatment) were prepared as previously reported (56, 57). After preparing and collecting hippocampal slices, CA1, CA2, CA3, DG, and EC regions were separated from hippocampal slices using a dissection knife from […] background mice and ob/ob mice, respectively. The CA1, CA2, CA3, DG, and EC regions of mice were separated and immediately lysed in disposable homogenization tube BioMasher2 (trademark) (Nippi, Tokyo, Japan) using 0.5 mL of TRIzol RNA isolation reagent (Thermo Fisher Scientific, Wilmington, DE). Total RNA was individually extracted from each region according to the remaining protocol of the TRIzol RNA isolation reagent provided by the manufacturer (Thermo Fisher Scientific, Wilmington, DE). 1 μg of total RNA was reverse transcribed using PrimeScript RT Reagent Kit (Takara, Shiga, Japan). An aliquot of the obtained CDNA was diluted 1:10 and added to a master mix of TB Green Premix ExTaq (Takara, Shiga, Japan), and real-time PCR was performed using a 7500 Fast Real-Time PCR system (Applied Biosystems, Foster City, CA, USA) according to the manufacturer's instructions. The conditions for real-time PCR were as follows. 40 cycles of 95° C. for 30 seconds, then 95° C. for 5 seconds and 60° C. for 34 seconds. The fluorescence intensity was measured for each annealing step and the threshold cycle time was determined using 7500 software. In addition, relative expression levels of β-actin were normalized to respective controls (vehicle group). The relative expression level of the target gene in each sample was determined using a standard curve and further normalized to the expression level of β-actin of the same sample. The sequences of primers and probes for these genes are shown in Supplemental Table 2. The “ratio of GluA2 mRNA amount/(GluA1+GluA3+GluA4 mRNA amount” was used as a Ca^2+ permeability index.
GluA2 is edited at the Q/R site within the reentry M2 membrane loop region by adenosine deaminase (ADAR2), which acts on RNA type 2 involved in editing double-stranded RNA from adenosine (A) to inosine (I) (review, refer to 15, 16 and 17). Attempts were made to determine real-time quantitative reverse transcription polymerase chain reaction (qRT-PCR), subunit composition of AMPAR and NMDAR. Total RNA in hippocampal subregions (CA1, CA3, DG, EC) was separated, and quantitative analysis of mRNA of GluA1, GluA2, GluA3, and GluA4 for AMPAR, and GluN1, GluN2A, GluN2B, and GluN2C for NMDAR was performed by qRT-PCR. […] Based on the mRNA amount of each subunit, the ratio of GluA2 to other GluA subunits (FIG. 2B) was determined. The ratio was defined as a Ca^2+ permeability index.

[3] = Body weight monitoring of obese mice; assay type: in vivo, mouse
Protocol: Male C57BL/6J background and ob/ob mice were obtained from CLEA Japan Inc. and Japan SLC, respectively (3). The reason why male mice were selected is that it has been reported that male mice are susceptible to HFD, such as weight gain, metabolic changes, and disorder of learning and hippocampal synaptic plasticity. These animals were housed 3 to 4 per cage in a standard 12 hour dark-light cycle room at 25° C. in an environment with freely available food and water. All animal experiments were performed in accordance with the guidelines of the Animal Experiment Ethics Committee of the University of the Ryukyus. Time series changes in average food intake and average body weight were monitored in each condition.
HFD mice were orally administered with HydroGel (Clear HO, Portland, ME 04101, USA) at a dose of 5 mg/kg body weight (HFD treated group with PER). For ob/ob mice, CE-2 feed (CLEA Japan, Inc., Tokyo) was used. HFD mice and ob/ob mice were orally administered one per cage with PER at a dose of 5 mg/kg body weight (HFD mice and ob/ob mice PER-administered group), and body weight and HydroGel intake were monitored twice a week for both groups to adjust the dose of PER to 5 mg/kg body weight.
Post-weaning (6 weeks) food intake and body weight of mice maintained on control diet (CD), high-fat diet (HFD), or HFD containing PER (Fycompa (trademark), Eisai, Japan) (5 mg/kg/day) was monitored up to 18 w (FIGS. 2, E and F). […] To determine the effect of HFD on cognitive behaviors, the open field test (FIG. 9, AC), elevated plus maze test (FIG. 9, DE), the contextual fear conditioning test (FIG. 9, F), the novel object recognition test (FIG. 2G), and a five-trial social interaction test (FIG. 2H) were performed. […]
Mice were then split into an HFD-fed group (n=5) and a PER-containing HFD-fed group (n=5) under the condition of the same feeding amount (refer to lower Panel of FIG. 25) and their body weights monitored.

[4] = HFD-fed mice with oral PER 5 mg/kg/day, NMDA 50 μM + glycine 10 μM, N = 5
[5] = HFD-fed mice with PER, ratio GluA2 mRNA/(GluA1+GluA3+GluA4 mRNA), N = 5

## N#Cc1ccccc1-c1cc(-c2ccccn2)cn(-c2ccccc2)c1=O [PER, 3-(2-cyanophenyl)-5-(2-pyridyl)-1-phenyl-1,2-dihydropyridine-2-one]
[1]; [4]
  NMDA reaction CA1 (maximum value of NF525): 1.20 ± 0.08
  NMDA reaction CA2 (maximum value of NF525): 1.20 ± 0.09
  NMDA reaction CA3 (maximum value of NF525): 1.12 ± 0.04
  NMDA reaction DG (maximum value of NF525): 1.17 ± 0.04
  NMDA reaction EC (maximum value of NF525): 1.16 ± 0.06
[1]; hippocampal slices from mice fed HFD and PER 5 mg/kg/day orally by hydrogel
  signal transduction via the NMDAR: simultaneously restored
[1]; ob/ob mice, PER administration, p<0.05
  NMDAR function in all hippocampal subregions: restoration of NMDAR function
[2]; [5]
  Ca2+-permeability index CA1: 0.29 ± 0.11
  Ca2+-permeability index CA3: 0.26 ± 0.10
  Ca2+-permeability index DG: 0.22 ± 0.06
  Ca2+-permeability index EC: 0.30 ± 0.05
[2]; HFD-fed mice, PER administration, N=5
  Ca2+ permeability index via CA1, CA3, DG and EC: returned to CD-fed mouse levels
[2]; mice fed HFD with PER, qRT-PCR, p<0.05
  GluA2 mRNA expression in CA1: significant increase
[3]; HFD containing PER 5 mg/kg/day from 6 weeks to 18 w, started from 16 w compared to HFD
  body weight: significant inhibition
[3]; PER-containing HFD-fed group (n=5) vs HFD-fed group (n=5)
  body weight under the same feeding amount: significant body weight loss
[3]; ob/ob mice, perampanel-containing diet 5 mg/kg body weight from 8 to 12 weeks of age
  appearance and body weight: overweight was prevented

Source: patent US20240398775A1, “PHARMACEUTICAL COMPOSITION FOR USE IN TREATING COGNITIVE DECLINE OR FOR USE IN TREATING OVERWEIGHT OR OBESITY” (University of the Ryukyus, priority 2021, published 2024)
